Experimental findings from ChEMBL document CHEMBL1201862, “PubChem BioAssay data set” (2004) are described below.

Holding throughout (experiment): DTP human tumour cell line panel, 48 h
Assay [1] relates to SF-268.
Assay [2] deals with MOLT-4.
For assay [3], the system named is HCT-116.
Assay [4] concerns SNB-75.
For assay [5], the system named is HOP-62.
In assay [6] the test system is A549.
In assay [7] the test system is HL-60.
In assay [8] the test system is K562.
Assay [9] has as its system SNB-19.
Assay [10] has as its system ACHN.
For assay [11], the system named is NCI-H522.
The test system of assay [12] is UACC-62.
Assay [13] concerns NCI-H23.
In assay [14] the test system is OVCAR-5.
Assay [15] concerns SF-295.

Molecules are shown by their SMILES.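 Five concentrations, 48 hours, 96-well plates. Abbreviation: GI50, concentration required for 50% inhibition of growth.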 Activity calls are given as the source filed them. Rule as the data show it: active = GI50 up to about 1.1 µM and inactive = higher.

By GI50 is commonly meant the concentration that inhibits growth by half.

With `O=C1C2C3CC4C5C3C1C5C1(SCCS1)C42` (centres undefined), the GI50 in assay [1], in [2], in assay [3], in assay [4], in assay [5] and in assay [6] was > 100 µM (inactive) in each case. Moreover, the GI50 in assay [7], in assay [8], in assay [9], in [10], in assay [11] and in [12] was > 100 µM (inactive) each time.
For `COc1cc2ccc3c4cc(OC)c(OC)cc4c[n+](C)c3c2cc1O`, the GI50 is 37.1 µM (inactive) in assay [13]; 0.658 µM (active) in [1]; > 100 µM (inactive) in assay [2]; > 100 µM (inactive) in assay [3]; 15.2 µM (inactive) in assay [4]; > 92.5 µM (inactive) in assay [5]. Moreover, the GI50 in assay [6] was > 100 µM (inactive); in [7], > 100 µM (inactive); in assay [8], > 83.4 µM (inactive); in assay [9] it was 3.91 µM (inactive); in [10], > 42.2 µM (inactive); in assay [11], 8.97 µM (inactive). Besides, the GI50 in assay [12] and in [14] was > 100 µM (inactive) each time.
In the case of `CCN(CC)CCn1c2c3ccccc3ccc2c2oc(=O)c3ccccc3c21`, the GI50 in [13] was > 100 µM (inactive); in [1] it was 82.2 µM (inactive); in assay [3] it was 88.5 µM (inactive); in assay [4], 15.9 µM (inactive); in [5] it was 18.3 µM (inactive); in assay [6], > 100 µM (inactive). The GI50 was > 100 µM (inactive) in assay [7]; > 100 µM (inactive) in assay [8]; 80 µM (inactive) in assay [9]; > 100 µM (inactive) in assay [10]; > 100 µM (inactive) in [11]; > 100 µM (inactive) in assay [12]. Further, the values for the GI50 in assay [15] and in assay [14] were 56.2 µM (inactive) and > 100 µM (inactive), respectively.
On to `O=C(N/N=C/c1cccc(O)c1O)N/N=C/c1cccc(O)c1O`, for which the GI50 in [13] is 25.2 µM (inactive); in assay [1], 5.93 µM (inactive); in assay [2], 5.38 µM (inactive); in [3], 5.02 µM (inactive); in [4], 8.77 µM (inactive); in assay [6] it was 35.9 µM (inactive). Also, the GI50 is 6.97 µM (inactive) in [8]; 30.2 µM (inactive) in assay [9]; 13.9 µM (inactive) in assay [10]; 11.9 µM (inactive) in assay [12]; 17.9 µM (inactive) in assay [15]; 22.2 µM (inactive) in assay [14].
For the compound `O=c1cc(-c2ccccc2)c2cc3c(=O)ccoc3cc2o1`, the GI50 is > 100 µM (inactive) in [13]; > 100 µM (inactive) in assay [1]; > 100 µM (inactive) in assay [2]; > 100 µM (inactive) in assay [3]; 14 µM (inactive) in [4]; 80.4 µM (inactive) in [5]. Moreover, the GI50 in assay [6] is > 100 µM (inactive); in [7] it was > 100 µM (inactive); in assay [8], > 100 µM (inactive); in [9], 64.4 µM (inactive); in [10], 87.9 µM (inactive); in assay [12], 62.2 µM (inactive). Also, the GI50 in assay [15] was 42.8 µM (inactive).
As to `CCOC(=O)C(=O)Nc1cccc(Cl)c1C`, the GI50 in assay [13], in assay [1], in assay [2], in assay [3], in assay [5] and in [6] was > 100 µM (inactive) throughout. Further, the GI50 in assay [7], in [8], in assay [9], in assay [10], in assay [11] and in [12] was > 100 µM (inactive) in each case. The GI50 in assay [15] and in [14] was > 100 µM (inactive) throughout.
Consider `CN(C)CC/C(=N\Nc1ccccc1)c1ccccc1`, for which the GI50 in assay [13] is 23 µM (inactive); in assay [1], 8.13 µM (inactive); in assay [2], 2.83 µM (inactive); in assay [3] it was 12.2 µM (inactive); in [5], 13.4 µM (inactive); in [6] it was 45 µM (inactive). The GI50 in [8] is 2.48 µM (inactive); in [9], 40.9 µM (inactive); in [12] it was > 100 µM (inactive); in [15], 2.56 µM (inactive); in assay [14] it was 14.4 µM (inactive).
Turning to `CCCCN(CC)C(=O)C(=O)C1C(=O)Nc2ccccc2[S+]1[O-]` (centres undefined), the GI50 in [13], in assay [1], in assay [2], in [3], in assay [4] and in [5] was > 100 µM (inactive) each time. Also, the GI50 in [6], in assay [8], in assay [9], in [10], in assay [11] and in [12] was > 100 µM (inactive) throughout. Moreover, the GI50 in [14] is > 100 µM (inactive).
As for `CCOC(=O)C(C(=O)c1ccccc1)=C1NCCN1`, the GI50 in assay [13], in assay [1], in assay [2], in assay [3], in assay [5] and in [6] was > 100 µM (inactive) throughout. Besides, the GI50 in assay [7], in assay [8], in [9], in assay [10], in assay [11] and in assay [12] was > 100 µM (inactive) in each case. Besides, the GI50 in assay [15] and in [14] was > 100 µM (inactive) each time.
Consider `Cn1c(=O)nc2n(-c3ccc(Cl)cc3)c3ccc(Cl)cc3nc-2c1=O`, for which the GI50 in assay [13] is 2.36 µM (inactive); in assay [1], 6.78 µM (inactive); in assay [2] it was 16.8 µM (inactive); in assay [3], 8.55 µM (inactive); in [4] it was 1.46 µM (inactive); in [5], 18 µM (inactive). The GI50 in [6] was 5.75 µM (inactive); in assay [7], 2.68 µM (inactive); in assay [8], 5.02 µM (inactive); in assay [9], > 10 µM (inactive); in assay [11], 6.35 µM (inactive); in assay [12], 1.07 µM (active). The GI50 in assay [15] was 4.88 µM (inactive); in [14], 16.1 µM (inactive).
In the case of `COc1ccc(C2Cc3cc(OC)c(OC)c(OC)c3C2=O)cc1` (centres undefined), the GI50 in assay [13] was 87.9 µM (inactive); in [1] it was > 100 µM (inactive); in [2] it was > 100 µM (inactive); in [3], > 100 µM (inactive); in assay [4], 47.3 µM (inactive); in [5], > 100 µM (inactive). Besides, the GI50 in assay [6] was > 100 µM (inactive); in assay [8] it was 80 µM (inactive); in assay [9] it was > 100 µM (inactive); in assay [10], > 100 µM (inactive); in [12], > 100 µM (inactive); in assay [15], > 100 µM (inactive). Also, in [14], the GI50 was > 100 µM (inactive).
Regarding `COc1cc(-c2ccc(NC(=O)SCCC(=O)O)cc2OC)ccc1NC(=O)SCCC(=O)O`, the GI50 in assay [13] was > 100 µM (inactive); in assay [1], > 100 µM (inactive); in assay [2], > 100 µM (inactive); in assay [3] it was > 100 µM (inactive); in [4], 65.3 µM (inactive); in assay [5], > 100 µM (inactive). Further, the GI50 was > 100 µM (inactive) in assay [6]; 24.9 µM (inactive) in [7]; > 100 µM (inactive) in assay [8]; > 100 µM (inactive) in assay [9]; > 100 µM (inactive) in assay [10]; > 100 µM (inactive) in [11]. The GI50 in [15] and in assay [14] was > 100 µM (inactive) throughout.
Regarding `CCN1N=CSC12C(=O)N(c1ccccc1)C(=O)N2c1ccccc1` (centres undefined), the GI50 in [13], in assay [1], in assay [2], in assay [3], in assay [4] and in [5] was > 100 µM (inactive) throughout. Further, the GI50 was > 100 µM (inactive) in assay [6]; 80.5 µM (inactive) in [7]; > 100 µM (inactive) in assay [8]; > 100 µM (inactive) in [9]; > 100 µM (inactive) in assay [10]; > 100 µM (inactive) in assay [11]. The GI50 in [12] and in assay [15] was > 100 µM (inactive) each time.
Regarding `CC1=COC(=O)c2ccccc2N1`, the GI50 in [13], in [1], in [3], in assay [4], in [5] and in assay [6] was > 100 µM (inactive) in each case. Further, the GI50 in [7], in assay [8], in assay [9], in assay [10], in [11] and in [12] was > 100 µM (inactive) throughout. Further, the GI50 in [15] and in assay [14] was > 100 µM (inactive) in each case.
Consider `COc1ccc(/C(=N\NC(=O)C(=O)NN)C(c2ccc(OC)cc2)C2(O)C(=O)Nc3ccccc32)cc1` (centres undefined), for which the GI50 in assay [13] was 89.5 µM (inactive); in assay [1], 55.2 µM (inactive); in [2] it was 6.44 µM (inactive); in assay [3] it was > 100 µM (inactive); in assay [4], > 100 µM (inactive); in assay [5], 94.8 µM (inactive). The GI50 was 62.4 µM (inactive) in assay [6]; 26.7 µM (inactive) in assay [8]; 53.3 µM (inactive) in assay [9]; 82.2 µM (inactive) in assay [10]; 28.1 µM (inactive) in assay [11]; 45.3 µM (inactive) in assay [12]. Also, the GI50 in assay [14] is > 100 µM (inactive).
